Results taken from publication PMC9191229, “Molecular and Biochemical Analysis of Duplicated Cytosolic CuZn Superoxide Dismutases of Rice and in silico Analysis in Plants” (Frontiers in Plant Science, 2022).
pIC50: −log10 of the molar value.

Assays:
OsCSD4 = test system: T1, OsCSD4; assay: SOD activity, NBT reduction assay (NADH/PMS), A560; format: biochemical, Oryza sativa; details: 1 h pre-incubation with DDC (0-2.0 mM); 1 U enzyme; Tris-HCl 50 mM pH 8.0, EDTA 0.1 mM
T1 construct: gene SODCC2

OsCSD1 = test system: T2, OsCSD1; assay: SOD activity, NBT reduction assay (NADH/PMS), A560; format: biochemical, Oryza sativa; details: 1 h pre-incubation with DDC (0-2.0 mM); 1 U enzyme; Tris-HCl 50 mM pH 8.0, EDTA 0.1 mM
T2 construct: gene SODCC1

pIC50 (OsCSD4): 3.30 | pIC50 (OsCSD1): 3.28
Structure (SMILES): CCN(CC)C(=S)S [diethyldithiocarbamate]
